Results on 1 substance are retold here after patent US8637684B2, “Tautomycetin and tautomycetin analog biosynthesis” (Wisconsin Alumni Research Foundation, priority 2010, dated 2014).

Some results are limits rather than exact numbers.

Assay [1] deals with T1, Cdc14A (Homo sapiens, UniProt Q9UNH5).
T1 sequence (Q9UNH5 1-594): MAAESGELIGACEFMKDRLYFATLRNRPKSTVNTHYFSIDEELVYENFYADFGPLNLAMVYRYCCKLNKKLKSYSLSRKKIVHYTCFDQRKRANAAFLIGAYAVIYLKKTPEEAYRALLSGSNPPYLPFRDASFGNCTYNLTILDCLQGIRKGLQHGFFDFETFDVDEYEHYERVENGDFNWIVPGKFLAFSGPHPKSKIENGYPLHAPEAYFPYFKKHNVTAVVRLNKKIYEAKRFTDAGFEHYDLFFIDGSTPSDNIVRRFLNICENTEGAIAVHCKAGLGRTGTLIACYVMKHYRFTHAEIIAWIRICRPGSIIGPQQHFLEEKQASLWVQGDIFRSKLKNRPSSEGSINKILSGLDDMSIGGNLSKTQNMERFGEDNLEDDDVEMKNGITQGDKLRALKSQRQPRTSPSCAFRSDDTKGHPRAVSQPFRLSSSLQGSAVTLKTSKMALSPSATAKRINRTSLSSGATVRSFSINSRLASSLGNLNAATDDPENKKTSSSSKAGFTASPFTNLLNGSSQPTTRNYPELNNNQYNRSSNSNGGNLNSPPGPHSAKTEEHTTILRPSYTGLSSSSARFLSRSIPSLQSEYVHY
The assay is described as follows: PTP activity assay with pNPP as substrate: Cdc14A. It is filed as biochemical. The conditions noted are these: pNPP as substrate at Km, pH 7.0, 25° C., I = 0.15 M.
Method: (§3) The PTP activity was assayed using pNPP as a substrate at 25° C. in 50 mM 3,3-dimethylglutarate buffer, pH 7.0, containing 1 mM EDTA with an ionic strength of 0.15 M adjusted by NaCl. TTM, TTN and the engineered analogs were analyzed for inhibition of a panel of PTPs at 10 μM compound concentration. For each enzyme screened, test compounds were diluted to 20 μM in 100 μL and combined with 50 μL pNPP at a concentration of 4×Km. The reaction was initiated by the addition of 50 μL of 4× concentrated enzyme and pNPP was allowed to convert to the product p-nitrophenol. The reaction was quenched by the addition of 50 μL of 5N NaOH. Nonenzymatic hydrolysis of pNPP was corrected by measuring the control without the addition of enzyme. Production of p-nitrophenol was monitored by a Spectra MAX385 microplate spectrophotometer (Molecular Devices) at 405 nm using a molar extinction coefficient of 18,000 M^−1 cm^−1. IC50 values were calculated by fitting the absorbance at 405 nm versus inhibitor concentration to the following equation: AI/A0=IC50/(IC50+[I]) where AI is the absorbance at 405 nm of the sample in the presence of inhibitor; Ao is the absorbance at 405 nm in the absence of inhibitor; and [I] is the concentration of the inhibitor.

The test system of assay [2] is SHP2/E76K-expressing hematopoietic progenitors. The assay can be described thus: 3H-thymidine incorporation assay of transduced bone marrow LDMNCs with GM-CSF. It is filed as cell-based. The note with it: 2 μM TTN for 24 hrs, GM-CSF 1 ng/mL. The procedure:
(§1) Transduced, EGFP+ cells were subjected to ^3H-thymidine incorporation assays, as previously described (Munugalavadla et al., 2007), or plated at a concentration of 8000 cells/mL in 0.9% methylcellulose-based media containing IMDM, 2 mM glutamine, 1% penicillin/streptomycin, 80 μM β-mercaptoethanol, 30% FBS, and GM-CSF 1 ng/mL or with saturating concentrations of growth factors including IL-3 200 U/mL, erythropoietin 4 U/mL, and stem cell factor (SCF) 100 ng/mL. All growth factors were from Peprotech. Cultures were incubated in a humidified incubator at 37° C. in 5% CO2 for 7 days and were scored for total colonies and for morphology to determine colony forming unit (CFU)-granulocyte-macrophage (GM) or CFU-monocyte (M).
(§2) For biochemical studies, macrophage progenitor cells expressing empty vector (MIEG3), wild-type SHP2, or SHP2/E76K were serum- and growth factor-deprived for 24 hours. Cells were pre-treated with DMSO or 2 μM TTN for 2 hours, and then cultures either remained unstimulated or were stimulated with GM-CSF at 50 ng/mL for 60 minutes. […] To provide further evidence that SHP2 is a molecular target of TTN, the inventors determined the X-ray crystal structure of SHP2 in complex with TTN D-1, as crystallization attempts for the SHP2-TTN complex were unsuccessful. […]

Assay [3] relates to PP2A. The note with it: literature values; cited from earlier work.
The conditions of assay [4]: literature (Luo et al., 2007; Mitsuhashi et al., 2003, 2008); cited from earlier work.
For assay [5], the system named is T cell proliferation. The conditions noted are these: relative to cyclosporine A (CsA); cited from earlier work.
Assay [6] deals with PTPα (Homo sapiens, UniProt P18433). The assay is described as follows: PTP activity assay with pNPP as substrate: PTPα. It is filed as biochemical. The conditions noted are these: pNPP as substrate at Km, pH 7.0, 25° C., I = 0.15 M.
Sequence of PTPα (P18433 20-802): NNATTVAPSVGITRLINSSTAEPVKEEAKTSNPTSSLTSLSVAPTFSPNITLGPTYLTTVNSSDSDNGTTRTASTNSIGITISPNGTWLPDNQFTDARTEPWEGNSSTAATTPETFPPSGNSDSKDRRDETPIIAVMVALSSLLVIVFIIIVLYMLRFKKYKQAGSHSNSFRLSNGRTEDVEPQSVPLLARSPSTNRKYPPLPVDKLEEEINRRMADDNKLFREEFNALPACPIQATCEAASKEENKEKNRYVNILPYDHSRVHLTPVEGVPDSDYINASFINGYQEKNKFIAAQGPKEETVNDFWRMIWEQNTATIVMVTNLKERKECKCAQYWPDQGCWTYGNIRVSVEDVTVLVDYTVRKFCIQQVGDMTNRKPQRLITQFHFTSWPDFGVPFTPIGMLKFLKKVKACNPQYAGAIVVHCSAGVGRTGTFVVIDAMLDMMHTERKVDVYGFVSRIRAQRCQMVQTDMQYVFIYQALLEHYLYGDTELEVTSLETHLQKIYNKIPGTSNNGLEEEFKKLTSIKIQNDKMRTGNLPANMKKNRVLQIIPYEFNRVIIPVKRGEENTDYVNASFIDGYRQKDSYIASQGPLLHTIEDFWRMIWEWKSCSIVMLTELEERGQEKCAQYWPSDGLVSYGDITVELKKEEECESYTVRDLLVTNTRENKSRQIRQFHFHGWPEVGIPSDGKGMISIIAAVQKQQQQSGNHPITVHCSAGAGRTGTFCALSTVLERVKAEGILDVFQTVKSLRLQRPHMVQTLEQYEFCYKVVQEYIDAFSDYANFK
Method: as §3
In assay [7] the test system is TCR-mediated ERK1/2 activation in Jurkat T cells. The assay can be described thus: Anti-CD3 (TCR) induced ERK1/2 activation in Jurkat T cells, immunoblot. It is filed as cell-based. The conditions noted are these: 2 hours pretreatment, anti-CD3 stimulation. As to the method:
Jurkat T cells were grown at 37° C. under an atmosphere of 5% CO2 in RPMI medium 1640 supplemented with 10% FBS. Cells were pretreated with different concentrations of TTN, TTN D-1, or TTM for 2 hours and stimulated with […] anti-CD3 antibody (OKT3; eBioscience) for 5 min and 30 min, respectively. Subsequently, cells were spinned down at 2000 rpm in 4° C., and cell pellets were lysed in 50 mM Tris-HCl (pH 7.5), 150 mM NaCl, 10% glycerol, 1% NP-40, 50 mM NaF, 10 mM pyrophosphate, 5 mM idoacetate, 1 mM sodium orthovanadate, and the protease inhibitor mixture. After 30 min lysing on ice, the cell lysates were centrifuged at 13,200 rpm for 15 min. Total cellular proteins were separated by SDS/PAGE and transferred electrophoretically to nitrocellulose membrane, which was immunoblotted by appropriate antibodies followed by incubation with HRP-conjugated secondary antibodies. Blots were developed using Pierce Pico ECL reagent (Thermo) according to the manufacturer's instructions.
TTN induces immunosuppression by suppression of TCR-mediated tyrosine phosphorylation and ERK1/2 activity in T cells (Shim et al., 2002). However, the mechanism of action for TTN's ability to block TCR signaling remains undefined. […]
(Immunoblotting shows a protein as a band on a membrane.)

Assay [8] concerns hematopoietic progenitors (MIEG3, wild-type SHP2, SHP2/E76K). The assay is described as follows: Methylcellulose-based colony assay of transduced bone marrow LDMNCs (CFU-M / CFU-GM). It is filed as cell-based. The conditions noted are these: 2 μM TTN, GM-CSF 1 ng/mL, 7 days. The procedure: as §1, §2

A word on the IC50: it is the midpoint of a concentration-inhibition curve. As for tautomycetin [TTN], the results for the IC50 in assay [1], in assay [3] and in assay [6] were over 50 µM, 0.062 µM and over 50 µM, respectively. In assay [2], the “effect on GM-CSF-stimulated proliferation of SHP2/E76K-expressing progenitors” value is “effectively reduced the proliferation”. Further, the “concentrations required to exert a cellular effect” value in assay [4] was 1 to 5 µM. Besides, the “concentration for inhibition of T cell proliferation, lower than that for maximal inhibition by cyclosporine A” value in assay [5] is 100 fold. For the same substance, the “effect on TCR-mediated ERK1/2 activation” value in assay [7] was “strongly reduced”. Besides, the “development of CFU-M” value in assay [8] is given as “reduced in all cells types”.
